Assay results taken from US20240300980A1, “HETEROCYCLIC COMPOUNDS AS KRAS INHIBITOR, AND PREPARATION THEREFOR AND USE THEREOF IN TREATMENT” (SHANGHAI KECHOW PHARMA, INC., priority 2021, published 2024).

tested on: AGS cells (KRAS^G12D); assay: Detection of cell proliferation in vitro by MTT/MTS method (cell activity experiment); type: cell-based; details: AGS cells; MTT/MTS; 3 days of drug treatment; read-out: AGS IC50
Method in brief: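 After 3-day compound exposure (final DMSO 0.5%), viability of AGS (KRAS G12D) cells, plated 1000/well one day before dosing, was measured at 490 nm following 4 h MTT or MTS incubation. IC50 was fitted from dose–effect curves relative to DMSO-treated wells.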

Row | SMILES | IC50 [µM]
1 | C#Cc1cccc2cc(O)cc(-c3ccc4c(N5C[C@H]6CC[C@@H](C5)[C@@H]6F)nc(OC[C@@]56CCCN5C[C@H](F)C6)nc4c3F)c12 [Example 125, 5-ethynyl-4-(8-fluoro-4-((1R,5S,8R)-8-fluoro-3-azabicyclo [3.2.1]octan-3-yl)-2-(((2R,7aS)-2-fluorotetrahydro-1H-pyrrolizin-7a(5H)-yl)methoxy)quinazolin-7-yl)naphthalen-2-ol] | > 2.5
2 | C#Cc1c(F)ccc2cc(O)cc(-c3ccc4c(N5C[C@H]6CC[C@@H](C5)C6[S+](C)[O-])nc(OC[C@@]56CCCN5C[C@H](F)C6)nc4c3F)c12 (stereo partly drawn) [Example 130, 5-ethynyl-6-fluoro-4-(8-fluoro-2-(((2R,7aS)-2-fluorotetrahydro-1H-pyrrolizin-7a(5H)-yl)methoxy)-4-((1R,5S, 8R)-8-(methylsulfinyl)-3-azabicyclo[3.2.1]octan-3-yl)quinazolin-7-yl)naphthalen-2-ol] | > 2.5

same assay, conditions: Homo sapiens, AGS, 72 h, AGS cells; MTT/MTS; 3 days of drug treatment; read-out: AGS IC50

Row | SMILES | IC50 [µM]
3 | Oc1cc(-c2c3c(c4c(N5C[C@H]6CC[C@@H](C5)N6)nc(OC[C@@]56CCCN5C[C@H](F)C6)nc4c2F)OCO3)c2ccccc2c1 [Example 389, 4-(9-((1R,5S)-3,8-diazabicyclo[3.2.1]octan-3-yl)-5-fluoro-7-(((2R,7aS)-2-fluorotetrahydro-1H-pyrrolizin-7a(5H)-yl)methoxy)-[1,3]dioxolo[4,5-f]quinazolin-4-yl)naphthalen-2-ol] | 0.18
4 | C#Cc1cccc2cc(O)cc(-c3ccc4c(N5C[C@H]6CC[C@@H](C5)C6(F)F)nc(OC[C@@]56CCCN5C[C@H](F)C6)nc4c3F)c12 [Example 121, 4-(4-((1R,5S)-8,8-difluoro-3-azabicyclo [3.2.1]octan-3-yl)-8-fluoro-2-(((2R,7aS)-2-fluorotetrahydro-1H-pyrrolizin-7a(5H)-yl)methoxy)quinazolin-7-yl)-5-ethynylnaphthalen-2-ol] | > 2.5
5 | C#Cc1c(F)ccc2cc(O)cc(N3CCc4c(nc(OC[C@]56CCCN5[C@@H](COC(=O)N(C)C)CC6)nc4N4C[C@H]5CC[C@@H](C4)N5)C3)c12 [Example 209, ((3R,7aR)-7a-(((4-((1R,5S)-3,8-diazabicyclo[3.2.1]octan-3-yl)-7-(8-ethynyl-7-fluoro-3-hydroxynaphthalen-1-yl)-5,6,7,8-tetrahydropyrido[3,4-d]pyrimidin-2-yl)oxy)methyl)hexahydro-1H-pyrrolizin-3-yl)methyl dimethylcarbamate] | 0.035
6 | CCc1ccc2cc(O)cc(C3=C(F)c4nc(OC[C@@]56CCCN5C[C@H](F)C6)nc(N5C[C@H]6CC[C@@H](C5)N6)c4C4=NCCN43)n12 [Example 412, 5-(10-((1R,5S)-3,8-diazabicyclo[3.2.1]octan-3-yl)-6-fluoro-8-(((2R,7aS)-2-fluorotetrahydro-1H-pyrrolizin-7a(5H)-yl)methoxy)-2,3-dihydroimidazo[1′,2′:1,2]pyrido[4,3-d]pyrimidin-5-yl)-3-ethylindolizin-7-ol] | 0.035
7 | Oc1cc2c(c(-c3ncc4c(N5C[C@H]6CC[C@@H](C5)N6)nc(OC[C@@]56CCCN5C[C@H](F)C6)nc4c3F)c1)C1CC1C2 (stereo partly drawn) [Example 73, 2-(4-((1R,5S)-3,8-diazabicyclo[3.2.1]octan-3-yl)-8-fluoro-2-(((2R,7aS)-2-fluorotetrahydro-1H-pyrrolizin-7a(5H)-yl)methoxy)pyrido[4,3-d]pyrimidin-7-yl)-1,1a, 6,6a-tetrahydrocyclopropa [a]inden-4-ol] | 0.0169
8 | CC1OCCc2cc(O)cc(-c3ncc4c(N5C[C@H]6CC[C@@H](C5)N6)nc(OC[C@@]56CCCN5C[C@H](F)C6)nc4c3F)c21 (stereo partly drawn) [Example 356, 8-(4-((1R,5S)-3,8-diazabicyclo[3.2.1]octan-3-yl)-8-fluoro-2-(((2R,7aS)-2-fluorotetrahydro-1H-pyrrolizin-7a(5H)-yl)methoxy)pyrido[4,3-d]pyrimidin-7-yl)-1-methylisochroman-6-ol] | 0.021
9 | Oc1cc(-c2ccc3c(N4C[C@H]5CC[C@@H](C4)C5(F)F)nc(OC[C@@]45CCCN4C[C@H](F)C5)nc3c2F)c2c(F)c(F)ccc2c1 [Example 122, 4-(4-((1R,5S)-8,8-difluoro-3-azabicyclo [3.2.1]octan-3-yl)-8-fluoro-2-(((2R,7aS)-2-fluorotetrahydro-1H-pyrrolizin-7a(5H)-yl)methoxy)quinazolin-7-yl)-5,6-difluoronaphthalen-2-ol] | > 2.5
10 | CC1CCc2cc(O)cc(-c3ncc4c(N5C[C@H]6CC[C@@H](C5)N6)nc(OC[C@@]56CCCN5C[C@H](F)C6)nc4c3F)c21 (stereo partly drawn) [Example 223, 7-(4-((1R,5S)-3,8-diazabicyclo[3.2.1]octan-3-yl)-8-fluoro-2-(((2R,7aS)-2-fluorotetrahydro-1H-pyrrolizin-7a(5H)-yl)methoxy)pyrido[4,3-d]pyrimidin-7-yl)-1-methyl-2,3-dihydro-1H-inden-5-ol] | 0.014
11 | C#Cc1cccc2cc(O)cc(-c3ncc4c(N5CC6CCC(C5)C6O)nc(OC[C@@]56CCCN5C[C@H](F)C6)nc4c3F)c12 (stereo partly drawn) [Example 61, (1R,5S,8R)-3-(7-(8-ethynyl-3-hydroxynaphthalen-1-yl)-8-fluoro-2-(((2R, 7aS)-2-fluorotetrahydro-1H-pyrrolizin-7a(5H)-yl)methoxy)pyrido[4,3-d]pyrimidin-4-yl)-3-azabicyclo[3.2.1] octan-8-ol] | > 2.5
12 | OCC1CCc2cc(O)cc(-c3ncc4c(N5C[C@H]6CC[C@@H](C5)N6)nc(OC[C@@]56CCCN5C[C@H](F)C6)nc4c3F)c21 (stereo partly drawn) [Example 265, 7-(4-((1R,5S)-3,8-diazabicyclo[3.2.1]octan-3-yl)-8-fluoro-2-(((2R,7aS)-2-fluorotetrahydro-1H-pyrrolizin-7a(5H)-yl)methoxy)pyrido[4,3-d]pyrimidin-7-yl)-1-(hydroxymethyl)-2,3-dihydro-1H-inden-5-ol] | > 10
13 | C#Cc1c(F)ccc2cc(O)cc(-c3ncc4c(N5CCC6(CCCS6(=O)=O)CC5)nc(OC[C@@]56CCCN5C[C@H](F)C6)nc4c3F)c12 [Example 50, 8-(7-(8-ethynyl-7-fluoro-3-hydroxynaphthalen-1-yl)-8-fluoro-2-(((2R, 7aS)-2-fluorotetrahydro-1H-pyrrolizin-7a(5H)-yl)methoxy)pyrido[4,3-d]pyrimidin-4-yl)-1-thia-8-azaspiro[4.5] decane 1,1-dioxide] | > 10
14 | C#Cc1c(F)ccc2cc(O)cc(-c3ccc4c(N5C[C@H]6CC[C@@H](C5)S6(=O)=O)nc(OC[C@@]56CCCN5C[C@H](F)C6)nc4c3F)c12 [Example 160, (1R,5S)-3-(7-(8-ethynyl-7-fluoro-3-hydroxynaphthalen-1-yl)-8-fluoro-2-(((2R,7aS)-2-fluorotetrahydro-1H-pyrrolizin-7a(5H)-yl)methoxy)quinazolin-4-yl)-8-thia-3-azabicyclo[3.2.1]octane 8,8-dioxide] | > 2.5
15 | Oc1cc2c(c(-c3ncc4c(N5C[C@H]6CC[C@@H](C5)N6)nc(OC[C@@]56CCCN5C[C@H](F)C6)nc4c3F)c1)C(CC(F)(F)F)CC2 (stereo partly drawn) [Example 257, 7-(4-((1R,5S)-3,8-diazabicyclo[3.2.1]octan-3-yl)-8-fluoro-2-(((2R,7aS)-2-fluorotetrahydro-1H-pyrrolizin-7a(5H)-yl)methoxy)pyrido[4,3-d]pyrimidin-7-yl)-1-(2,2,2-trifluoroethyl)-2,3-dihydro-1H-inden-5-ol] | 1.85
16 | C#Cc1cccc2cc(O)cc(-c3ncc4c(N5CCC6(CCCN6)CC5)nc(OC[C@@]56CCCN5C[C@H](F)C6)nc4c3F)c12 [Example 48, 5-ethynyl-4-(8-fluoro-2-(((2R,7aS)-2-fluorotetrahydro-1H-pyrrolizin-7a(5H)-yl)methoxy)-4-(1,8-diazaspiro[4.5]decan-8-yl)pyrido[4,3-d]pyrimidin-7-yl) naphthalen-2-ol] | 5.16
17 | CCc1c(F)ccc2cc(O)cc(-c3cnc4c(N5C[C@H]6CC[C@@H](C5)N6)nc(OC[C@@]56CCCN5C[C@H](F)C6)nc4c3)c12 [Example 201, 4-(4-((1R,5S)-3,8-diazabicyclo[3.2.1]octan-3-yl)-2-(((2R,7aS)-2-fluorotetrahydro-1H-pyrrolizin-7a(5H)-yl)methoxy)pyrido[3,2-d]pyrimidin-7-yl)-5-ethyl-6-fluoronaphthalen-2-ol] | > 2.5
18 | Oc1cc(-c2ccc3c(N4C[C@H]5CC[C@@H](C4)N5)c(C(F)(F)F)c(OC[C@@]45CCCN4C[C@H](F)C5)nc3c2F)c2c(F)c(F)ccc2c1 [Example 187, 4-(4-((1R,5S)-3,8-diazabicyclo[3.2.1]octan-3-yl)-8-fluoro-2-(((2R,7aS)-2-fluorotetrahydro-1H-pyrrolizin-7a(5H)-yl)methoxy)-3-(trifluoromethyl)quinolin-7-yl)-5,6-difluoronaphthalen-2-ol] | 1.41
19 | O=S1(=O)[C@@H]2CC[C@H]1CN(c1nc(OC[C@@]34CCCN3C[C@H](F)C4)nc3c(F)c(-c4cc(O)cc5cccc(F)c45)ccc13)C2 [Example 169, (1R,5S)-3-(8-fluoro-7-(8-fluoro-3-hydroxynaphthalen-1-yl)-2-(((2R,7aS)-2-fluorotetrahydro-1H-pyrrolizin-7a(5H)-yl)methoxy)quinazolin-4-yl)-8-thia-3-azabicyclo[3.2.1]octane 8,8-dioxide] | > 2.5
20 | CCC1CCc2cc(O)cc(-c3c4c(c5c(N6C[C@H]7CC[C@@H](C6)N7)nc(OC[C@@]67CCCN6C[C@H](F)C7)nc5c3F)OCO4)c21 (stereo partly drawn) [Example 394, 7-(9-((1R,5S)-3,8-diazabicyclo[3.2.1]octan-3-yl)-5-fluoro-7-(((2R,7aS)-2-fluorotetrahydro-1H-pyrrolizin-7a(5H)-yl)methoxy)-[1,3]dioxolo[4,5-f]quinazolin-4-yl)-1-ethyl-2,3-dihydro-1H-inden-5-ol] | 0.075
21 | Nc1cc2ccc(F)c(Cl)c2c(-c2ncc3c(N4C[C@H]5CC[C@@H](C4)N5)nc(OC[C@@]45CCCN4C[C@H](F)C5)nc3c2F)n1 [Example 39, 1-(4-((1R,5S)-3,8-diazabicyclo[3.2.1]octan-3-yl)-8-fluoro-2-(((2R,7aS)-2-fluorotetrahydro-1H-pyrrolizin-7a(5H)-yl)methoxy)pyrido[4,3-d]pyrimidin-7-yl)-8-chloro-7-fluoroisoquinolin-3-amine] | > 2.5
